Target: T1, Protein-glutamine gamma-glutamyltransferase 2 (Cavia cutleri, UniProt P08587)
T1 sequence (P08587 whole entry): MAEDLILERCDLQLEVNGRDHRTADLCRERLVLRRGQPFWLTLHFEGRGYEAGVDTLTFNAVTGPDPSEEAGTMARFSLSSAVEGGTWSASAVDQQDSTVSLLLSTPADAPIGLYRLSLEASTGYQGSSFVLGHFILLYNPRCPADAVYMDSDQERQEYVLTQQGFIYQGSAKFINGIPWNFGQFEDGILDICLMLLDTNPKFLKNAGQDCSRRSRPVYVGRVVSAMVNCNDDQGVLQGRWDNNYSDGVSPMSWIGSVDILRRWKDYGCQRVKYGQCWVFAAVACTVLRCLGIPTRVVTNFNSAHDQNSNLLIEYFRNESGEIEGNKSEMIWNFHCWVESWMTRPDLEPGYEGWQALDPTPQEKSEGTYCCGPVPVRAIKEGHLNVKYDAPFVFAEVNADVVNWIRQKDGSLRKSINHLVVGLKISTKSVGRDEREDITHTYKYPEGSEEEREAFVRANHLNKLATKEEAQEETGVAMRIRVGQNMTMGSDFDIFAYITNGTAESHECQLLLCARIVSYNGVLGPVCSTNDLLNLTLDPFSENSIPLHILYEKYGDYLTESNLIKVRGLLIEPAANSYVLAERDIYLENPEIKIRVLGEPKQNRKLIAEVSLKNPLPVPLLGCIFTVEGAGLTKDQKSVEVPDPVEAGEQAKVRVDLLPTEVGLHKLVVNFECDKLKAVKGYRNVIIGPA
Experiment: Enzyme Inhibition Assay: For enzymology studies of these compounds, recombinant guinea pig liver TGase was expressed in Escherichia coli and effectively purified (Gillet, S. M. F. G. et al J. N., Prot. Exp. & Purif. 2004, 33, 256). […] The mode of inhibition was determined for the representative lead compound.

SMILES	IC50
O=C(/C=C/c1ccc([N+](=O)[O-])cc1)n1ccnc1	> 20 µM
O=C(/C=C/c1ccc([N+](=O)[O-])cc1)NCc1ccccc1	> 50 µM

Reference: ChEMBL document CHEMBL3886297, “Cinnamoyl inhibitors of transglutaminase” (2015)
